From ChEMBL document CHEMBL6153103, “Novel Bioorthogonal Theranostic Scaffold Enables on-Target Drug Release and Real Time Monitoring In Vivo” (J Med Chem, 2025)
Values belong to the molecule of their own block, whether it stands above or below them. The source made the active and inactive calls. No cut-off for these calls is given here.

Legend:
[1] = test system: HeLa; experiment: Cytotoxicity against human HeLa cells assessed as inhibition of cell proliferation incubated for 72 hrs by CCK-8 assay; type: functional, cell-based
[2] = Prodrug activation in human A549 cells xenografted in BALB/c nude mouse assessed as blue fluorescence intensity in tumor at 5 mg/kg, ip administered for 1 hr by confocal microscopic analysis; type: organism-based; details: in vivo
[3] = Prodrug release in human A549 cells xenografted in BALB/c nude mouse assessed as DOX release by measuring change in green fluorescence intensity in tumor at 5 mg/kg, ip administered for 1 hr by DAPI staining based confocal microscopic analysis; type: ADME, organism-based; details: in vivo
[4] = Drug uptake in human HEK293T cells assessed as increase in blue fluorescence intensity at 100 uM incubated for 1 hr by confocal fluorescence microscopic analysis; type: ADME, cell-based; details: hek-293t
[5] = test system: A549; experiment: Cytotoxicity against human A549 cells assessed as inhibition of cell proliferation incubated for 72 hrs by CCK-8 assay; type: functional, cell-based; details: A549, 72 h
[6] = test system: A549; experiment: Cytotoxicity against human A549 cells assessed as inhibition of cell proliferation incubated for 72 hrs in presence of 15 uM 4-(6-methyl-1,2,4,5-tetrazin-3-yl)benzyl 3-(2-hydroxyethoxy)-2,3-dihydrophenanthro[9,10-b][1,4]dioxine-7-carboxylate by CCK-8 assay; type: functional, cell-based; details: A549, 72 h
[7] = Prodrug release in human A549 cells assessed as DOX release by measuring increase in fluorescence intensity at 100 uM measured after 2 hrs by confocal microscopy; type: ADME, cell-based; details: a549, 2 h
[8] = test system: HeLa; experiment: Cytotoxicity against human HeLa cells assessed as inhibition of cell proliferation incubated for 72 hrs 15 uM of 4-(6-methyl-1,2,4,5-tetrazin-3-yl)benzyl 3-(2-hydroxyethoxy)-2,3-dihydrophenanthro[9,10-b][1,4]dioxine-7-carboxylate by CCK-8 assay; type: functional, cell-based
[9] = test system: A549; experiment: Cytotoxicity against human A549 cells assessed as inhibition of cell proliferation incubated for 72 hrs in presence of 10 uM 4-(6-methyl-1,2,4,5-tetrazin-3-yl)benzyl 3-(2-hydroxyethoxy)-2,3-dihydrophenanthro[9,10-b][1,4]dioxine-7-carboxylate by CCK-8 assay; type: functional, cell-based; details: A549, 72 h
[10] = test system: HeLa; experiment: Cytotoxicity against human HeLa cells assessed as inhibition of cell proliferation incubated for 72 hrs 15 uM of (4-((2-((10-(((4-(6-methyl-1,2,4,5-tetrazin-3-yl)benzyl)oxy)carbonyl)-2,3-dihydrophenanthro[9,10-b][1,4]dioxin-2-yl)oxy)ethoxy)carbonyl)phenyl)boronic acid by CCK-8 assay; type: functional, cell-based
[11] = Cytotoxicity against human HEK293T cells assessed as inhibition of cell proliferation incubated for 72 hrs 15 uM of 4-(6-methyl-1,2,4,5-tetrazin-3-yl)benzyl 3-(2-hydroxyethoxy)-2,3-dihydrophenanthro[9,10-b][1,4]dioxine-7-carboxylate by CCK-8 assay; type: toxicity, cell-based, HEK-293T
[12] = Cytotoxicity against human HEK293T cells assessed as inhibition of cell proliferation incubated for 72 hrs 15 uM of (4-((2-((10-(((4-(6-methyl-1,2,4,5-tetrazin-3-yl)benzyl)oxy)carbonyl)-2,3-dihydrophenanthro[9,10-b][1,4]dioxin-2-yl)oxy)ethoxy)carbonyl)phenyl)boronic acid by CCK-8 assay; type: toxicity, cell-based, HEK-293T
[13] = Drug uptake in human HeLa cells assessed as increase in blue fluorescence intensity at 100 uM incubated for 1 hr by confocal fluorescence microscopic analysis; type: ADME, cell-based
[14] = Cytotoxicity against human HEK293T cells assessed as inhibition of cell proliferation incubated for 72 hrs by CCK-8 assay; type: toxicity, cell-based, HEK-293T
[15] = test system: A549; experiment: Cytotoxicity against human A549 cells assessed as cell viability incubated for 72 hrs by CCK-8 assay; type: functional, cell-based; details: A549, 72 h
[16] = test system: A549; experiment: Cytotoxicity against human A549 cells assessed as inhibition of cell proliferation upto 20 uM incubated for 72 hrs by CCK-8 assay; type: functional, cell-based
[17] = Prodrug release in human A549 cells assessed as DOX release by measuring increase in fluorescence intensity at 50 uM measured after 2 hrs by confocal microscopy; type: ADME, cell-based; details: a549, 2 h
[18] = test system: A549; experiment: Cytotoxicity against human A549 cells assessed as inhibition of cell proliferation incubated for 72 hrs in presence of 60 uM 4-(6-methyl-1,2,4,5-tetrazin-3-yl)benzyl 3-(2-hydroxyethoxy)-2,3-dihydrophenanthro[9,10-b][1,4]dioxine-7-carboxylate by CCK-8 assay; type: functional, cell-based; details: A549, 72 h
[19] = test system: A549; experiment: Cytotoxicity against human A549 cells assessed as inhibition of cell proliferation incubated for 72 hrs in presence of 80 uM 4-(6-methyl-1,2,4,5-tetrazin-3-yl)benzyl 3-(2-hydroxyethoxy)-2,3-dihydrophenanthro[9,10-b][1,4]dioxine-7-carboxylate by CCK-8 assay; type: functional, cell-based; details: A549, 72 h

SMILES: COc1cccc2c1C(=O)c1c(O)c3c(c(O)c1C2=O)C[C@@](O)(C(=O)CO)C[C@@H]3O[C@H]1C[C@H](N)[C@H](O)[C@H](C)O1 [DOXORUBICIN]
IC50 [1]: 14 nM

Drug metabolism [2]: metabolite_notdetected | Drug metabolism [3]: metabolite_detected
SMILES: Cc1nnc(-c2ccc(COC(=O)c3ccc4c5c(c6ccccc6c4c3)OCC(OCCOC(=O)c3ccc(B(O)O)cc3)O5)cc2)nn1 (centres undefined)

SMILES: COc1cccc2c1C(=O)c1c(O)c3c(c(O)c1C2=O)C[C@@](O)(C(=O)CO)C[C@@H]3O[C@H]1C[C@H](NC(=O)OC2/C=C/CCCCC2)[C@H](O)[C@H](C)O1 (some centres undefined)
Drug uptake [4]: Not_active | IC50 [5]: 537 nM | IC50 [6]: 58 nM | Drug metabolism [7]: metabolite_detected | IC50 [8]: 59 nM | Drug metabolism [2]: metabolite_notdetected | IC50 [9]: 67 nM | IC50 [10]: 30 nM | IC50 at 72 h [11]: 126 nM | Drug metabolism [3]: metabolite_detected | IC50 at 72 h [12]: 145 nM | Drug uptake [13]: Not_active | IC50 at 72 h [14]: 1150 nM | IC50 [1]: 989 nM

SMILES: Cc1nnc(-c2ccc(COC(=O)c3ccc4c5c(c6ccccc6c4c3)OCC(OCCO)O5)cc2)c2c1CCCCCC2 (centres undefined)
EC50 [15]: > 50000 nM | Activity [16]: Active

Drug uptake [4]: Not_active | Drug metabolism [17]: metabolite_detected | Drug uptake [13]: Not_active
SMILES: Cc1nnc(-c2ccc(COC(=O)c3ccc4c5c(c6ccccc6c4c3)OCC(OCCO)O5)cc2)nn1 (centres undefined)
EC50 [15]: > 50000 nM | Activity [16]: Active

SMILES: CO[C@@]12[C@H](COC(N)=O)C3=C(C(=O)C(C)=C(N)C3=O)N1C[C@@H]1N[C@@H]12 [MITOMYCIN]
IC50 [5]: 30 nM

SMILES: [C-]#[N+]CCCOC(=O)N1[C@H]2[C@@H]1CN1C3=C(C(=O)C(N)=C(C)C3=O)[C@@H](COC(N)=O)[C@@]21OC
IC50 [5]: 359 nM | IC50 [18]: 239 nM | IC50 [19]: 239 nM | IC50 [9]: 313 nM
